Data set [1] deals with Influenza A virus. Kind of data set: Antiviral activity against Influenza A virus H3N2 assessed as inhibition of viral induced cytopathic effect. The class given is functional, organism-based. (In general: Protection from cytopathic effect is a common read-out in antiviral testing.)
Data set [2] deals with Influenza A virus. Kind of data set: Antiviral activity against influenza A virus H1N1 assessed as inhibition of viral induced cytopathic effect. The class given is functional, organism-based.
Data set [3] has as its system Influenza A virus. Kind of data set: Antiviral activity against Influenza A virus H3N2 assessed as cell viability by cell based MTS assay. The class given is functional, organism-based.
Data set [4] deals with Influenza B virus. Kind of data set: Antiviral activity against influenza B virus assessed as cell viability by cell based MTS assay. The class given is functional, organism-based.
The test system of data set [5] is Influenza A virus. Kind of data set: Antiviral activity against influenza A virus H1N1 assessed as cell viability by cell based MTS assay. The class given is functional, organism-based. (Tetrazolium dyes change colour on reduction, which living cells bring about.)
Data set [6] has as its system Influenza B virus. Kind of data set: Antiviral activity against influenza B virus assessed as inhibition of viral induced cytopathic effect. The class given is functional, organism-based.
Data set [7] is described as follows: Toxicity assessed as increase of ristocetin-induced platelet aggregation. The class given is cell-based.

Structures are written as SMILES.

One compound from ChEMBL document CHEMBL1158551, “Click reaction synthesis of carbohydrate derivatives from ristocetin aglycon with antibacterial and antiviral activity” (Bioorg Med Chem Lett, 2010) can be followed below.

As a reminder, the EC50 is the midpoint of the concentration-response curve.

As for `COC(=O)[C@H]1NC(=O)[C@H]2NC(=O)[C@H](NC(=O)[C@@H]3NC(=O)[C@H]4NC(=O)[C@H](NC(=O)[C@H](n5cc(CO[C@@H]6O[C@@H](C)[C@H](O)[C@@H](O)[C@H]6O)nn5)c5ccc(O)c(c5)Oc5cc4cc(O)c5C)[C@H](O)c4ccc(cc4)Oc4cc3cc(c4O)Oc3ccc(cc3)[C@H]2O)c2ccc(O)c(c2)-c2c(O)cc(O)cc21`, the EC50 in the data set on Influenza A virus [1], with Influenza A virus [2], in the data set with Influenza A virus [3], in the data set on Influenza B virus [4], in the data set on Influenza A virus [5] and in the data set on Influenza B virus [6] was greater than 100 µM throughout. Further, in data set [7], the Activity result is given as “Toxic”.
